Laboratory results reported in patent publication US20220386606A1, “SPECIFICALLY SUBSTITUTED 3-PHENYL-5-SPIROCYCLOPENTYL-3-PYRROLIN-2-ONES AND THEIR USE AS HERBICIDES” (Bayer Aktiengesellschaft, priority 2019, published 2022).

Tests used:
[1] = system: DIGSA; assay: Post-emergence herbicidal action against DIGSA; format: in vivo, Digitaria sanguinalis; conditions: 80 g/ha, visual assessment about 3 weeks after treatment vs untreated controls
Method: (§1) Seeds of monocotyledonous and dicotyledonous weed and crop plants are laid out in sandy loam soil in wood-fiber pots, covered with soil and cultivated in a greenhouse under good growth conditions. 2 to 3 weeks after sowing, the test plants are treated at the one-leaf stage. The compounds of the invention, formulated in the form of wettable powders (WP) or as emulsion concentrates (EC), are then sprayed onto the green parts of the plants as aqueous suspension or emulsion at a water application rate equating to 600 to 800 l/ha with addition of 0.2% wetting agent. After the test plants have been left to stand in the greenhouse under optimal growth conditions for about 3 weeks, the action of the preparations is assessed visually in comparison to untreated controls (herbicidal action in percent (%): 100% activity=the plants have died, 0% activity=like control plants).

[2] = system: LOLRI; assay: Pre-emergence herbicidal action against LOLRI (Table 8, titled post-emergence at 320 g/ha); format: in vivo, Lolium rigidum; conditions: table stands in the pre-emergence section
Source text: (§2) Seeds of monocotyledonous and dicotyledonous weed plants and crop plants are laid out in sandy loam soil in wood-fiber pots and covered with soil. The compounds of the invention, formulated in the form of wettable powders (WP) or as emulsion concentrates (EC), are then applied to the surface of the covering soil as aqueous suspension or emulsion at a water application rate equating to 600 to 800 L/ha with addition of 0.2% wetting agent.
(§3) After the treatment, the pots are placed in a greenhouse and kept under good growth conditions for the trial plants. The damage to the test plants is scored visually after a test period of 3 weeks by comparison with untreated controls (herbicidal activity in percent (%): 100% activity=the plants have died, 0% activity=like control plants).

[3] = system: DIGSA; assay: Pre-emergence herbicidal action against DIGSA; format: in vivo, Digitaria sanguinalis; conditions: 320 g/ha, scored visually after 3 weeks vs untreated controls
Source text: as §2, §3

[4] = system: AVEFA; assay: Pre-emergence herbicidal action against AVEFA; format: in vivo, Avena fatua; conditions: 320 g/ha, scored visually after 3 weeks vs untreated controls
Source text: as §2, §3

[5] = system: ECHCG; assay: Pre-emergence herbicidal action against ECHCG; format: in vivo, Echinochloa crus-galli; conditions: 320 g/ha, scored visually after 3 weeks vs untreated controls
Source text: as §2, §3

[6] = system: VIOTR; assay: Pre-emergence herbicidal action against VIOTR; format: in vivo, Viola tricolor; conditions: 320 g/ha
Source text: as §2, §3

[7] = system: ECHCG; assay: Post-emergence herbicidal action against ECHCG; format: in vivo, Echinochloa crus-galli; conditions: 80 g/ha, visual assessment about 3 weeks after treatment vs untreated controls
Method: as §1

[8] = system: SETVI; assay: Pre-emergence herbicidal action against SETVI; format: in vivo, Setaria viridis; conditions: 320 g/ha, scored visually after 3 weeks vs untreated controls
Source text: as §2, §3

[9] = system: ALOMY; assay: Pre-emergence herbicidal action against ALOMY; format: in vivo, Alopecurus myosuroides; conditions: 320 g/ha, scored visually after 3 weeks vs untreated controls
Source text: as §2, §3

[10] = system: AMARE; assay: Pre-emergence herbicidal action against AMARE; format: in vivo, Amaranthus retroflexus; conditions: 320 g/ha
Source text: as §2, §3

[11] = system: SETVI; assay: Post-emergence herbicidal action against SETVI; format: in vivo, Setaria viridis; conditions: 80 g/ha, visual assessment about 3 weeks after treatment vs untreated controls
Method: as §1

[12] = system: ALOMY; assay: Post-emergence herbicidal action against ALOMY; format: in vivo, Alopecurus myosuroides; conditions: 80 g/ha, visual assessment after about 3 weeks
Method: as §1

[13] = system: VERPE; assay: Pre-emergence herbicidal action against VERPE; format: in vivo, Veronica persica; conditions: 320 g/ha
Source text: as §2, §3

[14] = system: LOLRI; assay: Post-emergence herbicidal action against LOLRI; format: in vivo, Lolium rigidum; conditions: 80 g/ha, visual assessment about 3 weeks after treatment vs untreated controls
Method: as §1

[15] = system: AVEFA; assay: Post-emergence herbicidal action against AVEFA; format: in vivo, Avena fatua; conditions: 80 g/ha, visual assessment after about 3 weeks
Method: as §1

CC#Cc1cc(C)c(C2=C(O)C3(CCC(COCC)C3)NC2=O)c(Br)c1 (centres unmarked) [Example I-21]
100%: Post-emergence action against DIGSA in % [1] | Pre-emergence herbicidal action against LOLRI in % [2] | Pre-emergence action against DIGSA in % [3] | Pre-emergence action against AVEFA in % [4] | Pre-emergence action against ECHCG in % [5] | Pre-emergence action against VIOTR in % [6] | Post-emergence action against ECHCG in % [7] | Pre-emergence action against SETVI in % [8] | Pre-emergence action against ALOMY in % [9] | Pre-emergence action against AMARE in % [10] | Post-emergence action against SETVI in % [11] | Post-emergence action against ALOMY in % [12]

CC#Cc1cc(Br)c(C2=C(O)C3(CCC(COCC)C3)NC2=O)c(CC)c1 (centres unmarked) [Example I-24]
80%: Pre-emergence action against VERPE in % [13]

CC#Cc1cc(C)c(C2=C(O)C3(CCC(COCCOC)C3)NC2=O)c(OC)c1 (centres unmarked) [Example I-52]
100%: Pre-emergence herbicidal action against LOLRI in % [2] | Pre-emergence action against DIGSA in % [3] | Pre-emergence action against AVEFA in % [4] | Pre-emergence action against ECHCG in % [5] | Post-emergence action against ECHCG in % [7] | Pre-emergence action against SETVI in % [8] | Pre-emergence action against ALOMY in % [9] | Post-emergence action against SETVI in % [11] | Post-emergence action against ALOMY in % [12]
90%: Post-emergence action against LOLRI in % [14] | Post-emergence action against AVEFA in % [15]
80%: Pre-emergence action against VIOTR in % [6] | Pre-emergence action against AMARE in % [10]

CC#Cc1cc(C)c(C2=C(OC(=O)C(C)C)C3(CCC(COCC)C3)NC2=O)c(Br)c1 (centres unmarked) [Example P-36]
100%: Pre-emergence herbicidal action against LOLRI in % [2] | Pre-emergence action against DIGSA in % [3] | Pre-emergence action against VIOTR in % [6] | Pre-emergence action against SETVI in % [8] | Pre-emergence action against ALOMY in % [9] | Post-emergence action against SETVI in % [11] | Post-emergence action against ALOMY in % [12]
80%: Pre-emergence action against AVEFA in % [4] | Pre-emergence action against VERPE in % [13]
90%: Post-emergence action against DIGSA in % [1] | Pre-emergence action against ECHCG in % [5] | Post-emergence action against ECHCG in % [7]

CC#Cc1cc(C)c(C2=C(OC(=O)C(C)C)C3(CCC(COC)C3)NC2=O)c(OC)c1 (centres unmarked) [Example P-46]
90%: Post-emergence action against AVEFA in % [15]
100%: Post-emergence action against DIGSA in % [1] | Pre-emergence herbicidal action against LOLRI in % [2] | Pre-emergence action against DIGSA in % [3] | Post-emergence action against LOLRI in % [14] | Pre-emergence action against AVEFA in % [4] | Pre-emergence action against ECHCG in % [5] | Pre-emergence action against VIOTR in % [6] | Post-emergence action against ECHCG in % [7] | Pre-emergence action against SETVI in % [8] | Pre-emergence action against ALOMY in % [9] | Pre-emergence action against AMARE in % [10] | Post-emergence action against SETVI in % [11] | Post-emergence action against ALOMY in % [12]

CC#Cc1cc(C)c(C2=C(OC(=O)OCC)C3(CCC(COC)C3)NC2=O)c(OC)c1 (centres unmarked) [Example P-47]
100%: Post-emergence action against DIGSA in % [1] | Pre-emergence action against DIGSA in % [3] | Post-emergence action against LOLRI in % [14] | Pre-emergence action against AVEFA in % [4] | Pre-emergence action against ECHCG in % [5] | Pre-emergence action against VIOTR in % [6] | Post-emergence action against ECHCG in % [7] | Pre-emergence action against SETVI in % [8] | Pre-emergence action against ALOMY in % [9] | Pre-emergence action against AMARE in % [10] | Post-emergence action against SETVI in % [11] | Post-emergence action against ALOMY in % [12]
90%: Post-emergence action against AVEFA in % [15]
